Measured values reported in patent US20250186436A1 (4E Therapeutics, Inc., priority 2021, published 2025).
Values joined by “and” are separate entries in the source; they are usually repeats but may differ in a detail not shown here. Identical values can stand only once. Like-named read-outs stand apart in the source and are kept apart here.

Key:
Format in all cases: in vivo
[1] = PK study in male Sprague-Dawley rats dosed once per day for five days, PO 25 mg/kg, 0.5% HPMC (Example 8); conditions: 0.5% HPMC suspension
Procedure: Example 8. PK study of 4ET-03-053 in male Sprague-Dawley rats dosed once per day for five days (P0; 25 mg/kg; 0.5HPMC aqueous suspension)
Table 24 provides plasma and brain concentrations at 24 hr after the last dose of five daily PO doses of 4ET-03-053.

Wistar rats = experiment: Intravenous self-administration with oxycodone and saline regimen; conditions: rat, in vivo
Procedure: Ten male and eleven female Wistar rats (Charles River, Hollister, CA) were used in this study. Rats were housed in groups of 2-3 per cage prior to surgery, and then individually housed to protect their catheters, in a temperature-controlled (22° C.) vivarium on a 12/12h light/dark cycle (lights off at 8:00 AM) with ad libitum access to food and water. The rats acclimated to the animal facility for at least 7 days before surgery. All procedures adhered to the National Institutes of Health Guide for the Care and Use of Laboratory Animals and were approved by the Institutional Animal Care and Use Committee of The Scripps Research Institute.
For surgery, rats were anesthetized with 2 to 3% isoflurane. They were implanted with a silastic catheter (0.3 mm i.d.×0.64 mm o.d.; Dow Corning Co. Midland, MI) into the right external jugular vein under aseptic conditions. The distal end of the catheter was subcutaneously threaded to the back of the rat where it exited via a metal guide cannula (22G; Plastics One Inc., Roanoke, VA) that was anchored at the back of the rat and closed with a small plastic cap and metal cover cap to keep the inside part of the catheter clean and protected (Caine S B, et al. “Effects of dopamine D-1 and D-2 antagonists on cocaine self-administration under different schedules of reinforcement in the rat” J Pharmacol Exp Ther. 270(1):209-18 (1994); Wee S, et al. “Effects of dose and session duration on cocaine self-administration in rats” J Pharmacol Exp Ther. 320(3):1134-43 (2007); Zorrilla E P, et al. “Extended access cocaine self-administration differentially activates dorsal raphe and amygdala corticotropin-releasing factor systems in rats” Addict Biol. 17(2):300-8 (2012); Valtcheva M V, et al. “Surgical extraction of human dorsal root ganglia from organ donors and preparation of primary sensory neuron cultures” Nat Protoc. 11:1877-1888 (2016)). All incisions were closed using veterinary tissue adhesive. After surgery, rats were given analgesic (Flunixin, 2.5 mg/kg s.c.).
Rats were allowed 5-7 days for recovery prior to self-administration.
The patency of catheters in the rats was tested using an ultra-short-acting barbiturate methohexital sodium (Brevital, Eli Lilly, Indianapolis, 1N, 10 mg/mL, 2 mg/rat) every 10-12 days during the study. Generally, a total loss of muscle tone within 3 s after a methohexital sodium injection indicates the patency of a catheter. Any animal that failed the test was excluded from the study.
During experimental sessions, each rat was placed in a standard operant chamber, which was placed in a light- and sound-attenuating cubicle (28×26×20 cm; Med Associates Inc., St. Albans, VT). The front door and the back wall of the chamber were made of transparent plastic, and the other walls were opaque metal. The chamber had two retractable response levers mounted on one side of the opaque walls. A stimulus light was mounted above each lever. A drug injection was delivered by a syringe pump (Razel Scientific Instruments, Georgia, VT) located on top of the cubicle. Experimental sessions were controlled and recorded by a PC computer with custom interface and software in the experimental room.
Experimental sessions were conducted once a day, 5-7 days a week during the dark (active) cycle. After being flushed with 0.9% saline, a rat's indwelling catheter was connected to a tube that exited the chamber through a metal spring and a swivel and was connected to a syringe pump. After the drug delivery system was connected to the rat, the chamber was closed, and the 2 hr session was started immediately. The start of a session was signaled by the presentation of two response levers into the chamber. […] During an injection, stimulus lights above both levers were illuminated and lasted throughout a time-out period (20 s) that followed each injection. Pressing the left lever was counted but had no other programmed consequences. […]

[2] = PK study in male Sprague-Dawley rats dosed once per day for five days, PO 25 mg/kg, 0.5% HPMC (Example 8); conditions: 0.5% HPMC suspension; remark: listed apart in the source
[3] = day five of daily PO 25 mg/kg, individual animals, 25 mg/kg
[4] = day five of daily PO 25 mg/kg, mean (n = 3)
[5] = male, Sprague-Dawley, rat, in vivo, po, 25 mg/kg, day five of daily PO 25 mg/kg, individual animals
[6] = male, Sprague-Dawley, rat, in vivo, po, 25 mg/kg, day five of daily PO 25 mg/kg, mean (n = 3)
[7] = male, Sprague-Dawley, rat, in vivo, po, 25 mg/kg, single PO 25 mg/kg dose, individual animals
[8] = male, Sprague-Dawley, rat, in vivo, po, 25 mg/kg, single PO 25 mg/kg dose, mean (n = 3)
[9] = single PO 25 mg/kg dose, individual animals, 25 mg/kg
[10] = single PO 25 mg/kg dose, mean (n = 3)

Cc1cc(Nc2cc(N)ncn2)c(=O)n2c1C(=O)NC21CCC2(CC2)CC1 [4ET-03-053, 6″-((6-Aminopyrimidin-4-yl)amino)-8″-methyl-2″H-dispiro[cyclopropane-1,1′-cyclohexane-4′,3″-imidazo[1,5-a]pyridine]-1″,5″-dione]
time to peak plasma concentration ([1]; after the last of five daily 25 mg/kg PO doses): ≤ 1 h
AUCinf [1, 3]: 489.224 µg·h/mL and 471.587 µg·h/mL
AUCinf/D [1, 3]: 16316 kg·h/kL and 19569 kg·h/kL and 18863 kg·h/kL
AUClast [1, 3]: 403.575 µg·h/mL and 371.995 µg·h/mL
Clast [1, 3]: 5340 ng/mL and 6120 ng/mL
Cmax [1, 3]: 26800 ng/mL and 29900 ng/mL
Cmax/D [1, 3]: 1184 kg/kL and 1072 kg/kL and 1196 kg/kL
F [1, 3]: 31.7% and 38.0% and 36.6%
MRTinf [1, 3]: 13.2 h and 14.8 h
t1/2 [1, 3]: 10.7 h and 9.67 h
AUCinf/D [1, 4]: 18250 kg·h/kL
Cmax/D [1, 4]: 1151 kg/kL
F [1, 4]: 35.5%
concentration at 24 h ([1]; male, Sprague-Dawley, rat, in vivo, po, 25 mg/kg, after the last of five daily 25 mg/kg PO doses, at 24 hr, read-out: last measurable concentration): 5890 ng/mL
Cmax ([1]; male, Sprague-Dawley, rat, in vivo, po, 25 mg/kg, after the last of five daily 25 mg/kg PO doses, read-out: peak plasma concentration (Cmax)): 28800 ng/mL
half-life ([1]; male, Sprague-Dawley, rat, in vivo, po, 25 mg/kg, after the last of five daily 25 mg/kg PO doses, read-out: terminal half-life (t1/2) (converted)): 10.5 h
AUC(0-inf) ([1]; male, Sprague-Dawley, rat, in vivo, po, 25 mg/kg, after the last of five daily 25 mg/kg PO doses, read-out: total systemic exposure (AUCinf)): 456 µg·h/mL
AUC(0-t) [1, 5]: 324 µg·h/mL
MRT inf [1, 5]: 14.5 h
Tmax [1, 5]: 1 h
AUC(0-inf) ([1]; male, Sprague-Dawley, rat, in vivo, po, 25 mg/kg, day five of daily PO 25 mg/kg, individual animals, read-out: AUCinf): 408 µg·h/mL
concentration at 24 h ([1]; male, Sprague-Dawley, rat, in vivo, po, 25 mg/kg, day five of daily PO 25 mg/kg, individual animals, read-out: Clast): 6220 ng/mL
Cmax ([1]; male, Sprague-Dawley, rat, in vivo, po, 25 mg/kg, day five of daily PO 25 mg/kg, individual animals, read-out: Cmax): 29600 ng/mL
half-life ([1]; male, Sprague-Dawley, rat, in vivo, po, 25 mg/kg, day five of daily PO 25 mg/kg, individual animals, read-out: t1/2 (converted)): 11 h
AUC(0-t) [1, 6]: 367 µg·h/mL
MRT inf [1, 6]: 14.1 h
Tmax [1, 6]: 1 h
AUC(0-inf) ([1]; male, Sprague-Dawley, rat, in vivo, po, 25 mg/kg, day five of daily PO 25 mg/kg, mean (n = 3), read-out: AUCinf): 456 µg·h/mL
concentration at 24 h ([1]; male, Sprague-Dawley, rat, in vivo, po, 25 mg/kg, day five of daily PO 25 mg/kg, mean (n = 3), read-out: Clast): 5890 ng/mL
Cmax ([1]; male, Sprague-Dawley, rat, in vivo, po, 25 mg/kg, day five of daily PO 25 mg/kg, mean (n = 3), read-out: Cmax): 28800 ng/mL
half-life ([1]; male, Sprague-Dawley, rat, in vivo, po, 25 mg/kg, day five of daily PO 25 mg/kg, mean (n = 3), read-out: t1/2 (converted)): 10.5 h
AUC(0-t) [1, 7]: 288 µg·h/mL
MRT inf [1, 7]: 9.26 h
Tmax [1, 7]: 1 h
AUC(0-inf) ([1]; male, Sprague-Dawley, rat, in vivo, po, 25 mg/kg, single PO 25 mg/kg dose, individual animals, read-out: AUCinf): 315 µg·h/mL
concentration at 24 h ([1]; male, Sprague-Dawley, rat, in vivo, po, 25 mg/kg, single PO 25 mg/kg dose, individual animals, read-out: Clast): 3130 ng/mL
Cmax ([1]; male, Sprague-Dawley, rat, in vivo, po, 25 mg/kg, single PO 25 mg/kg dose, individual animals, read-out: Cmax): 24400 ng/mL
AUC(0-t) [1, 8]: 312 µg·h/mL
MRT inf [1, 8]: 9.25 h
Tmax [1, 8]: 1.33 h
AUC(0-inf) ([1]; male, Sprague-Dawley, rat, in vivo, po, 25 mg/kg, single PO 25 mg/kg dose, mean (n = 3), read-out: AUCinf): 341 µg·h/mL
Cmax ([1]; male, Sprague-Dawley, rat, in vivo, po, 25 mg/kg, single PO 25 mg/kg dose, mean (n = 3), read-out: Cmax): 25900 ng/mL
half-life ([1]; male, Sprague-Dawley, rat, in vivo, po, 25 mg/kg, single PO 25 mg/kg dose, mean (n = 3), read-out: t1/2 (converted)): 6.82 h
Cmax ([1]; male, Sprague-Dawley, rat, in vivo, po, 25 mg/kg, single PO 25 mg/kg, read-out: peak plasma concentration (Cmax)): 25900 ng/mL
half-life ([1]; male, Sprague-Dawley, rat, in vivo, po, 25 mg/kg, single PO 25 mg/kg, read-out: terminal half-life (t1/2) (converted)): 6.82 h
AUC(0-inf) ([1]; male, Sprague-Dawley, rat, in vivo, po, 25 mg/kg, single PO 25 mg/kg, read-out: total systemic exposure (AUCinf)): 341 µg·h/mL
bioavailability ([1]; male, rat, in vivo, after the last of five daily 25 mg/kg PO doses): 35.5%
AUCinf [1, 9]: 363.793 µg·h/mL and 345.084 µg·h/mL
AUCinf/D [1, 9]: 12599 kg·h/kL and 14552 kg·h/kL and 13803 kg·h/kL
AUClast [1, 9]: 336.46 µg·h/mL and 313.078 µg·h/mL
Clast [1, 9]: 2660 ng/mL and 2870 ng/mL
Cmax/D [1, 9]: 976 kg/kL and 984 kg/kL and 1152 kg/kL
F [1, 9]: 24.5% and 28.3% and 26.8%
MRTinf [1, 9]: 8.89 h and 9.60 h
t1/2 [1, 9]: 6.94 h and 6.50 h
AUCinf/D [1, 10]: 13651 kg·h/kL
Cmax/D [1, 10]: 1037 kg/kL
Mean Difference, Šídák's multiple comparisons test (Wistar rats): 1.500
Summary, Šídák's multiple comparisons test (Wistar rats): ns
addictive potential (Wistar rats): negligible addictive potential
numbers of infusions, multiple comparisons test: 0.05 mg/kg 4ET-03-053 and subsequent oxycodone (Wistar rats): significant differences
numbers of infusions, multiple comparisons test: 0.1 mg/kg 4ET-03-053 and the final oxycodone test (Wistar rats): significant differences
Mean Difference, Šídák's multiple comparisons test (Wistar rats; 0.05 mg/kg): −8.041
Summary, Šídák's multiple comparisons test (Wistar rats; 0.05 mg/kg): ns
Mean Difference, Šídák's multiple comparisons test (Wistar rats; 0.15 mg/kg): 5.441
Summary, Šídák's multiple comparisons test (Wistar rats; 0.15 mg/kg): ns
half-life [2, 7]: 7.03 h
concentration at 24 h ([2]; male, Sprague-Dawley, rat, in vivo, po, 25 mg/kg, single PO 25 mg/kg dose, mean (n = 3), read-out: Clast): 2890 ng/mL
concentration at 24 h ([2]; male, Sprague-Dawley, rat, in vivo, po, 25 mg/kg, single PO 25 mg/kg, at 24 hr, read-out: last measurable concentration): 2890 ng/mL
F [2, 10]: 26.5%
time to peak plasma concentration ([2]; single PO 25 mg/kg): ≤ 2 h
